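Test compounds were applied to cells in 96-well plates for 48 hours at 5 doses. Abbreviation: GI50, concentration required for 50% inhibition of growth. TGI marks complete inhibition of growth.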
Key:
Assay in all cases: NCI-60 cell line screen, 48 h
BT-549 breast = test system: BT-549 breast
DMS 273 small cell lung = test system: DMS 273 small cell lung
HCC-2998 colon = test system: HCC-2998 colon
HOP-18 NSCLC = test system: HOP-18 NSCLC
HS 578T breast = test system: HS 578T breast
MALME-3M melanoma = test system: MALME-3M melanoma
SK-MEL-28 melanoma = test system: SK-MEL-28 melanoma
SK-MEL-5 melanoma = test system: SK-MEL-5 melanoma
TK-10 renal = test system: TK-10 renal
UO-31 renal = test system: UO-31 renal

Row | Compound | TGI (BT-549 breast) | TGI (DMS 273 small cell lung) | TGI (HCC-2998 colon) | TGI (HOP-18 NSCLC) | TGI (HS 578T breast) | TGI (MALME-3M melanoma) | TGI (SK-MEL-28 melanoma) | TGI (SK-MEL-5 melanoma) | TGI (TK-10 renal) | TGI (UO-31 renal) | GI50 (BT-549 breast) | GI50 (HS 578T breast) | GI50 (SK-MEL-28 melanoma) | GI50 (SK-MEL-5 melanoma) | GI50 (TK-10 renal) | GI50 (UO-31 renal)
1 | O=C(NC(=O)c1c(F)cccc1F)Nc1cccc(Oc2ncc(Cl)cn2)c1 | > 100 µM | > 100 µM | > 27.3 µM | > 100 µM | > 92.1 µM | > 100 µM | > 100 µM | > 100 µM | > 100 µM | > 100 µM |  |  |  |  |  | 
2 | N[C@H](C(=O)O)[C@@H]1CC(Cl)=NO1 | > 1000 µM | 328 µM | 329 µM | > 1000 µM | > 1000 µM | 542 µM | > 1000 µM | 493 µM | > 609 µM | 772 µM | 7.4 µM | 7.42 µM | 28.9 µM | 8.51 µM | 34.5 µM | 26.6 µM
3 | Cc1cc(N(CC(C)Br)CC(C)Br)ccc1N=Nc1ccccc1C(=O)O (stereo unspecified) | 26.5 µM | 20.5 µM | 6.19 µM | 8.29 µM | 49.2 µM | 18.6 µM | 5.43 µM | 14.6 µM | 24.4 µM | 37.5 µM |  |  |  |  |  | 
4 | NCCCNCCS | > 100 µM | > 100 µM | > 100 µM | > 100 µM | > 100 µM | > 100 µM | > 100 µM | > 100 µM | > 100 µM | > 100 µM |  |  |  |  |  | 
5 | Nc1ncnc2c1ncn2C1C=C(CO)C(O)C1O (stereo unspecified) | > 100 µM | 28.3 µM | > 77.3 µM | > 100 µM | > 100 µM | > 100 µM | > 100 µM | > 100 µM | > 84.9 µM | 19.9 µM |  |  |  |  |  | 
6 | CN(C)CCC(=O)N1C/C(=C\c2ccc(Cl)c(Cl)c2)C(=O)/C(=C/c2ccc(Cl)c(Cl)c2)C1 | 1.7 µM | 0.316 µM | 0.955 µM | 2.3 µM | 1.73 µM | 1.51 µM | 1.82 µM | 0.759 µM | 1.58 µM | 0.862 µM |  |  |  |  |  | 
7 | CNC(=O)OCc1nc(SSC(C)(C)C)n(C)c1COC(=O)NC | 2.83 µM | 17.3 µM | 22.4 µM | 10.8 µM | 7.9 µM | 3.76 µM | 4.67 µM | 16.5 µM | 13 µM | 20.3 µM |  |  |  |  |  | 

Reference: PubChem BioAssay (NCI)
